Laboratory results as given in ChEMBL document CHEMBL5634160, “Synthesis, biological evaluation and action mechanism of 7H-[1,2,4] triazolo [3,4-b] [1,3,4] thiadiazine-phenylhydrazone derivatives as α-glucosidase inhibitors” (Eur J Med Chem, 2023).

Target: Alpha-glucosidase (Saccharomyces cerevisiae S288c, UniProt P53341+P38158+P07265)
Assay: Inhibition of Saccharomyces cerevisiae alpha-glucosidase using nitrophenol-alpha-D-glucopyranoside (pNPG) as substrate incubated for 15 mins
Type: protein assay

IC50 [µM] | SMILES
50.24 | Fc1ccc(/C=N/Nc2nnc3n2N=C(c2ccccc2)CS3)cc1
41.83 | Clc1ccccc1/C=N/Nc1nnc2n1N=C(c1ccccc1)CS2
